According to patent US3976770A, “Sar'-(OMe)Thr^8 Angiotensin II as an angiotensin II antagonist” (priority 1975, dated 1976):

Experiments:
[1] = water solubility and storage of solution; type: physicochemical
Procedure: Since the above compound is particularly suitable for injection or infusion, it is particularly valuable that the compound is watersoluble. A suitable dosage unit can be prepared by simply dissolving the above compound in water or physiological saline at a concentration of between 50 and 6000 ng/ml. […] A commonly employed buffer for an injectable solution is Tris(hydroxymethyl) aminomethane but simple salts such as sodium phosphate or acetate can be used. Preferably, the vehicle or medium in which the compound of Formula I is dissolved for an injectable or infusable solution is buffered to a pH of 7 to 7.5.

[2] = tested on: pressor response of angiotensin II; assay: blocking of the pressor response of angiotensin II in ganglion blocked rats; type: in vivo
Procedure: For determining its antagonistic properties the compound was infused intravenously in ganglion blocked rats at a dose level of 125, 250, 500, 1250 ng/kg/min. The blocking effect of the compound was calculated from the dose-response curve of angiotensin II before and during the infusion of the analog. General procedure adopted for this assay has been described by Bumpus et al., Circ. Res. 32-33 (Supplement I), I-150 (1973). […] The dose-ratio obtained was 62.50 ± 14.93 at a dose-level of 250 ng/kg/min.

[3] = duration of action after i.m. injection of an oil solution; type: in vivo; details: single i.m. injection, dissolved in oil
Procedure: The duration of action of the compound can be prolonged by injecting an oil solution intramuscularly. Oils suitable for this purpose are cod liver oil, sesame oil, refined coconut oil, etc. Antagonistic effects are thus observed for 24 hours or longer after a single i.m. injection of the drug dissolved in such an oil.

blood pressure = assay: in vivo pressor response on infusion into anesthetized, vagotomized rats; details: scale set artificially at 100 for angiotensin II
Procedure: In the in vivo assays, rats were anesthetized with sodium amytal and further treated with 0.6 mg atropine and pentolinium tartrate. They were vagotomized and direct recording of the blood pressure was measured through the carotid artery, while the femoral artery was used for infusing the desired dose over a period of 30 minutes in a physiological saline solution.
The dose-response curves of angiotensin II at 0.9 to 54 ng/kg/min. were compared by linear regression analysis with those of the antagonist at doses of 1, 10, 100 and 1000 ng/kg/min. Infusion of the above antagonist into rats thus prepared led to the initial transient pressor response of 0.48 on a scale set artificially at 100 for angiotensin II using the same system.

[4] = tested on: acute unilateral renal hypertensive rats; assay: blood pressure in acute unilateral renal hypertensive rats; type: in vivo; details: intravenous infusion

water solubility [1]: watersoluble
storage of solution without deterioration ([1]; solution in water or physiological saline, 50-6000 ng/ml, proper conditions): several weeks without deterioration
Compound: CC[C@H](C)[C@H](NC(=O)[C@H](Cc1ccc(O)cc1)NC(=O)[C@@H](NC(=O)[C@H](CCCNC(=N)N)NC(=O)CNC)C(C)C)C(=O)N[C@@H](Cc1cnc[nH]1)C(=O)N1CCC[C@H]1C(=O)N[C@H](C(=O)O)[C@@H](C)OC [Formula I, Sar'-(OMe)Thr^8 Angiotensin II]
dose-ratio ([2]; dose-level of 250 ng/kg/min, intravenous infusion, ganglion blocked rats): 62.50 ± 14.93
pressor effect of angiotensin II ([2]; intravenous infusion into rats in a very small amount): inhibited
dose level at which the pressor response of angiotensin II was blocked ([2]; intravenous infusion, ganglion blocked rats): ≥ 125 ng/kg/min
duration of antagonistic effects [3]: ≥ 24 h
initial transient pressor response (blood pressure): 0.48
blood pressure [4]: capable of reducing blood pressure
